These results are taken from US20250051337A1 (priority 2021, published 2025).

Marks after values point to notes of the source that are not given here. Where only a bound is given, the exact number is not on record here.

The target in one series is STK3 (Homo sapiens (Human), UniProt Q13188). Description: Thermal shift assay (ThermoFluor differential scanning fluorimetry). To be noted: for ΔTm at 10 µM: read-out: ΔTm; for Tm shift: Tm of STK3 or STK4, text statement. The class given is binding.
Series [1] deals with YAP/TAZ-TEAD activity (8×GTIIC-luciferase) in HEK293 cells. Description: YAP-TAZ-TEAD luciferase assay. To be noted: 10 μM, 48 h, vs DMSO. The class given is cell-based. As to the method:
8×GTIIC-luciferase was a gift from Stefano Piccolo (Addgene plasmid #34615, http://n2t.net/addgene: 34615: RRID: Addgene_34615). HEK293 cells were transfected with 8×GTIIC-luciferase plasmid and control Renilla luciferase plasmid using jetPRIME transfection reagent (Polyplus-transfection RSA: New York, NY. USA) for 24 h and cultured in Dulbeco's Modified Eagle Media (DMEM) Glutamax supplemented with 10% Fetal Bovine Serum (FBS), antibiotic/antimycotic, and sodium pyruvate (Gibco. Thermo FisherScientific: Waltham. MA. USA). The transfected cells were treated with 10 μM compound in triplicate and incubated for 48 h at 37° C. Firefly and Renilla luminescence were detected with a Dual-Glo Luciferase Assay System (Promega #E2920) according to the manufacturer's recommendations. The ratio of firefly to Renilla luminescence was calculated for each well and normalized to the ratio in control cells incubated with DMSO.
STK3/4 can negatively regulate the activity of the YAP/TAZ-TEAD protein complex and, accordingly, inactivation of these kinases reduces the transcription of YAP/TAZ-TEAD target genes. […] The results confirmed the intracellular on-target activity of our potent compounds for inhibiting STK3 and STK4 activity and targeting gene expression in the Hippo signaling pathway.

The next series is described as follows: Caco-2 permeability. The class given is in vitro ADME. As to conditions: human; for Papp B→A: Caco-2; for efflux ratio: Caco-2, Papp (B→A/A→B). As to the method: (§1) The Caco-2 cell permeability was determined for selected compounds 6, 11, 16, and 23. Permeability is classified as follows: high >10, medium, 1-10, and low ≤1. The efflux ratio is calculated by Papp (B→A/A→B). A compound is a potential transporter substrate if efflux ratio >2.0. Atenolol, Propranolol, and Taxol were used as internal standards. Data is represented as an average of a single experiment preformed in duplicate. Apparent permeability=(Papp).
In general terms: Caco-2 cells form a polarised layer with tight junctions and transporters.

A further series has as its system Caco-2 cell. Description: Caco-2 permeability. As to conditions: Caco-2, classification. The class given is in vitro ADME. As to the method:
as §1

Series [2] deals with Thr35-phosphorylated MOB1 in liver. Description: Western blot analysis of p-MOB1 in mouse liver. The class given is in vivo. As to conditions: mice; for levels of Thr35-phosphorylated MOB1 in liver vs vehicle / Relative decrease in liver p-MOB1 level: 20 mg/kg intraperitoneal; for levels of Thr35-phosphorylated MOB1 in liver vs vehicle: 1 h, p<0.002; for Relative decrease in liver p-MOB1 level: 1 h post-dose. The method, then:
[…] Approximately 50 mg of liver tissue was placed in 1 mL Radioimmunoprecipitation assay (RIPA) buffer (50 mM Tris-HCl pH 8.0, 150 mM NaCl, 1.0% IGEPAL® CA-630, 0.5% sodium deoxycholate, and 0.1% SDS) containing phosphatase and protease inhibitor cocktails, homogenized with a PowerGen 125 homogenizer (Fisher Scientific), and then sonicated for 10 s. Homogenized tissues were centrifuged at 14,000×g at 4° C. for 20 min and the supernatants were recovered.
Protein concentrations in the supernatants were determined using a BCA assay (Pierce/Thermo Scientific). Proteins were separated on Novex™ WedgeWell™ 4-20% Tris-Glycine Gels (Invitrogen: Carlsbad, CA, USA) and transferred to polyvinylidene difluoride (Trans-Blot® Turbo™ Transfer Pack) membranes. Membranes were blocked in Tris-buffered saline Tween® 20 (50 mM Tris-HCl pH 7.6, 150 mM NaCl, 0.05% Tween 20: TBST) containing 3% Bovine Serum Albumin (BSA) for 1 h at room temperature and incubated overnight at 4° C. with primary antibodies as follows: 1:1000 dilution of anti-MOB1 (rabbit monoclonal antibody [mAb]#13730), 1:1000 anti-phospho-MOB1 Thr35 (rabbit mAb #8699), or 1:5000 anti-GAPDH (rabbit mAb #2118: all from Cell Signaling Technology: Danvers, MA, USA). Blots were rinsed three times with TBST and then incubated in 5% nonfat milk containing horseradish peroxidase (HRP)-conjugated mouse anti-rabbit IgG secondary Ab (Cell Signaling Technology) for 1 h at RT. Blots were washed three times with TBST, developed using Pierce® ECL Western Blotting reagent, and imaged and analyzed using with ImageJ software. Quantitative data are expressed as the level of phosphorylated MOB1 normalized to total MOB1.
Adult female C57BL/6 mice (n=3/group) were intraperitoneally injected with vehicle or test compound (20 mg/kg), and blood samples and livers were collected at 30 min and 1 h post-injection, respectively. Plasma concentrations of all 13 compounds were >1.4 μM at 30 min after injection, and 10 compounds had liver concentrations >1.0 μM at 1 h after injection, as measured by LC-MS/MS, with particularly high plasma concentrations obtained with compounds 11 (15.9 μM), 16 (11.6 μM) and 105 (8.7 μM) (Table 5). To evaluate target engagement in vivo, the total and phosphorylated MOB1 levels in livers collected at 1 h post-injection was examined.

A further series in a line: in vivo. To be noted: female, C57BL/6J, mouse, ip, 10 mg/kg. The method, then:
All animal procedures were approved by the Sanford Burnham Prebys Medical Discovery Institute Institutional Animal Care and Use Committee and were performed according to the NIH guidelines for the Care and Use of Laboratory Animals. Adult female C57BL/6J mice were purchased from Jackson Laboratories and housed with free access to food and water on a 12 h light/dark cycle. Compounds were formulated in 5% DMSO, 10% Tween-80, and 85% H2O and injected intraperitoneally at 10 or 20 mg/kg. Blood samples were collected retro-orbitally at the indicated times and plasma was prepared by centrifugation. Livers were collected post mortem at the indicated times.
For quantification of compound, plasma samples were extracted with acetonitrile: water 4:1 with 0.1% formic acid containing indomethacin as an internal standard. Samples were centrifuged and the supernatants were diluted with acetonitrile: water and analyzed by LC-MS/MS using a Shimadzu Nexera X2 High-performance liquid chromatography (HPLC) (Shimadzu Scientific Instruments: Kyoto, Japan) coupled to an AB Sciex 6500 QTRAP (AB Sciex LLC: Toronto, Canada).

Description for STK3: Temperature-dependent protein unfolding profiles were measured using a Real-Time PCR Mx3005p machine (Stratagene: San Diego, CA, USA). Data evaluation and melting temperature calculation were performed using Protein Thermal Shift™ Software v1.2.
To further evaluate binding of these compounds to STK3/4, differential scanning fluorimetry (protein thermal shift using ThermoFluor technology) assay was used to benchmark the capacity to stabilize the kinase domain. The melting temperature (Tm) of STK3 or STK4 was measured in the presence of vehicle (DMSO) or 6, 11 or 23.

With `Clc1cccc(-c2c[nH]c3ncnc(N4CCOCC4)c23)c1` [Compound 6, 4-(5-(3-Chlorophenyl)-7H-pyrrolo[2,3-d]pyrimidin-4-yl)morpholine], the ΔTm at 10 µM on STK3 came to 8.1 °C. The “YAP/TAZ-TEAD activity (luciferase reporter)” value (“YAP/TAZ-TEAD activity” below) in series [1] is on record as “marked increase”. Moreover, the Papp B→A in “Caco-2 permeability” is 35.7 ×10⁻⁶ cm/s. Further, the Permeability result in the series with Caco-2 cell is given as “High”.
Take `NC(=O)c1cccc(-c2c[nH]c3ncnc(N4CCOCC4)c23)c1` [Compound 11, 3-(4-Morpholino-7H-pyrrolo[2,3-d]pyrimidin-5-yl)benzamide]: the ΔTm at 10 µM on STK3 was found to be 7.4 °C. In addition, the “YAP/TAZ-TEAD activity” value in series [1] was “marked increase”. The “inhibition of MOB1 phosphorylation in liver” value in series [2] (10 mg/kg intraperitoneal, 1, 2, 3 h) is reported as “maximum inhibition of MOB1 phosphorylation observed at 1 h”. Further, in series [2], the “levels of Thr35-phosphorylated MOB1 in liver vs vehicle” value (from here on “levels … vs vehicle”) is on record as “significant reduction”. Further, in “in vivo”, the AUC(0-t) was determined as 9.5 µM·h, the concentration peaked (Cmax) at 10.9 µM, the Tmax came to 30 min and the half-life is 42 min. The molecule also had a Papp B→A in the series “Caco-2 permeability” of 136 ×10⁻⁶ cm/s. The Permeability result in the series with Caco-2 cell is reported as “Medium to High”.
Consider `OC1CCN(c2ncnc3[nH]cc(-c4cccc(Cl)c4)c23)CC1` [Compound 16, 1-(5-(3-Chlorophenyl)-7H-pyrrolo[2,3-d]pyrimidin-4-yl)piperidin-4-ol], for which, at STK3, the Tm shift entry was “comparable results” and the ΔTm at 10 µM was determined as 8 °C. Further, the “YAP/TAZ-TEAD activity” value in series [1] was “marked increase”. Besides, in series [2], the “levels … vs vehicle” value is given as “significant reduction” and the “Relative decrease in liver p-MOB1 level” value was 78%**. In the series “in vivo”, the AUC(0-t) amounted to 4.3 µM·h, the Cmax was found to be 5.8 µM, the Tmax is 15 min and the half-life was 594 min. In “Caco-2 permeability”, the Papp B→A worked out at 294 ×10⁻⁶ cm/s and the efflux ratio stood at 1.3. Further, the Papp in the series “Caco-2 permeability” (Caco-2, classification) is over 10 ×10⁻⁶ cm/s. Further, the Permeability entry in the series with Caco-2 cell was “High”.
Turning to `Clc1cccc(-c2c[nH]c3nccc(N4CCOCC4)c23)c1` [Compound 23, 4-(3-(3-chlorophenyl)-1H-pyrrolo[2,3-b]pyridin-4-yl)morpholine], at STK3, the Tm shift is over 7.4 °C and the shift in melting temperature (ΔTm) at 10 µM turned out to be 7.9 °C. Moreover, in series [1], the “YAP/TAZ-TEAD activity” value is listed as “marked increase”. For the same molecule, the “Relative decrease in liver p-MOB1 level” value in series [2] worked out at 33%. Moreover, in “Caco-2 permeability”, the Papp B→A was 7 ×10⁻⁶ cm/s and the efflux ratio was 1.6. Further, the Permeability entry in the series on Caco-2 cell was “High”.
As for `CC(=O)NC1CCN(c2ncnc3[nH]cc(-c4cccc(Cl)c4)c23)CC1` [Compound 105, N-(1-(5-(3-chlorophenyl)-7H-pyrrolo[2,3-d]pyrimidin-4-yl)piperidin-4-yl)acetamide], in series [2], the “levels … vs vehicle” value was “significant reduction” and the “Relative decrease in liver p-MOB1 level” value is on record as 99%**. Also, in “in vivo”, the AUC(0-t) stood at 8.1 µM·h, the highest level (Cmax) was 11.8 µM, the Tmax was determined as 15 min and the half-life is 318 min.

The term ΔTm denotes the shift of the melting midpoint relative to a reference. Usually Papp B→A stands for how fast a substance crosses the layer from the basolateral side. A word on the AUC(0-t): it is the area under the concentration-time curve up to a stated or last time point. Read a high AUC(0-t) as more exposure. By Cmax is commonly meant the maximum level reached in the sampled fluid or tissue. As usually defined, the Tmax is the time at which the peak concentration occurs. As a reminder, the half-life is the time in which the quantity being followed falls by half. Higher therefore signals slow decline. The efflux ratio is a quotient of directional permeabilities that is used to spot active efflux. By Papp is commonly meant a coefficient for how fast a substance crosses the barrier. A lower Papp goes with poor permeation.
